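96-well plates; 48 h exposure; 5 concentrations. Endpoints by linear interpolation between flanking doses. Not reached: highest tested concentration assigned. TGI denotes the concentration required for complete inhibition of growth.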
Key:
Assay in all cases: DTP human tumour cell line panel, 48 h
RXF 393 renal = system: RXF 393 renal
CAKI-1 renal = system: CAKI-1 renal
NCI-H23 lung = system: NCI-H23 lung
BT-549 breast = system: BT-549 breast
MCF7 breast = system: MCF7 breast
HCC-2998 colon = system: HCC-2998 colon
NCI-H522 lung = system: NCI-H522 lung
HCT-116 colon = system: HCT-116 colon
SK-MEL-28 melanoma = system: SK-MEL-28 melanoma
OVCAR-3 ovarian = system: OVCAR-3 ovarian
KM12 colon = system: KM12 colon
MDA-N = system: MDA-N
A549 NSCLC = system: A549 NSCLC
SN12C renal = system: SN12C renal
T-47D breast = system: T-47D breast
A498 renal = system: A498 renal
SK-OV-3 ovarian = system: SK-OV-3 ovarian
SW-620 colon = system: SW-620 colon
HOP-92 NSCLC = system: HOP-92 NSCLC
RPMI-8226 leukemia = system: RPMI-8226 leukemia
MDA-MB-231 breast = system: MDA-MB-231 breast
TK-10 renal = system: TK-10 renal
786-0 renal = system: 786-0 renal
MOLT-4 leukemia = system: MOLT-4 leukemia
SF-268 CNS = system: SF-268 CNS
SF-295 CNS = system: SF-295 CNS
HT29 colon = system: HT29 colon
OVCAR-4 ovarian = system: OVCAR-4 ovarian
HS 578T breast = system: HS 578T breast
SF-539 CNS = system: SF-539 CNS
ACHN renal = system: ACHN renal
UACC-257 melanoma = system: UACC-257 melanoma
U251 CNS = system: U251 CNS
OVCAR-8 ovarian = system: OVCAR-8 ovarian
LOX IMVI melanoma = system: LOX IMVI melanoma
PC-3 prostate = system: PC-3 prostate
SK-MEL-5 melanoma = system: SK-MEL-5 melanoma
NCI-H226 lung = system: NCI-H226 lung
EKVX NSCLC = system: EKVX NSCLC
MALME-3M melanoma = system: MALME-3M melanoma
HOP-62 NSCLC = system: HOP-62 NSCLC
M14 melanoma = system: M14 melanoma
HCT-15 colon = system: HCT-15 colon
UO-31 renal = system: UO-31 renal
MDA-MB-435 = system: MDA-MB-435
NCI/ADR-RES ovarian = system: NCI/ADR-RES ovarian
SNB-75 CNS = system: SNB-75 CNS
COLO 205 colon = system: COLO 205 colon
IGROV1 ovarian = system: IGROV1 ovarian
SNB-19 CNS = system: SNB-19 CNS
DU-145 prostate = system: DU-145 prostate
SK-MEL-2 melanoma = system: SK-MEL-2 melanoma
OVCAR-5 ovarian = system: OVCAR-5 ovarian
NCI-H460 lung = system: NCI-H460 lung
UACC-62 melanoma = system: UACC-62 melanoma
K-562 leukemia = system: K-562 leukemia
CCRF-CEM leukemia = system: CCRF-CEM leukemia
HL-60(TB) leukemia = system: HL-60(TB) leukemia

## COc1ccc2nc3cccc([N+](=O)[O-])c3c(NCCN(C)C)c2c1
RXF 393 renal
  TGI: 0.23 µM
CAKI-1 renal
  TGI: 0.746 µM
NCI-H23 lung
  TGI: 0.362 µM
BT-549 breast
  TGI: 0.184 µM
MCF7 breast
  TGI: 0.314 µM
HCC-2998 colon
  TGI: 0.188 µM
NCI-H522 lung
  TGI: 0.0487 µM
HCT-116 colon
  TGI: 0.115 µM
SK-MEL-28 melanoma
  TGI: 0.31 µM
OVCAR-3 ovarian
  TGI: 0.312 µM
KM12 colon
  TGI: 0.449 µM
MDA-N
  TGI: 0.262 µM
A549 NSCLC
  TGI: 0.279 µM
SN12C renal
  TGI: 0.327 µM
T-47D breast
  TGI: 0.408 µM
A498 renal
  TGI: 0.347 µM
SK-OV-3 ovarian
  TGI: 0.781 µM
SW-620 colon
  TGI: 0.756 µM
HOP-92 NSCLC
  TGI: 0.192 µM
RPMI-8226 leukemia
  TGI: 0.393 µM
MDA-MB-231 breast
  TGI: 0.357 µM
TK-10 renal
  TGI: 0.659 µM
786-0 renal
  TGI: 0.348 µM
MOLT-4 leukemia
  TGI: 0.491 µM
SF-268 CNS
  TGI: 0.546 µM
SF-295 CNS
  TGI: 1 µM
HT29 colon
  TGI: 0.441 µM
OVCAR-4 ovarian
  TGI: 0.271 µM
HS 578T breast
  TGI: 0.518 µM
SF-539 CNS
  TGI: 0.297 µM
ACHN renal
  TGI: 0.357 µM
UACC-257 melanoma
  TGI: 0.384 µM
U251 CNS
  TGI: 0.6 µM
OVCAR-8 ovarian
  TGI: 0.251 µM
LOX IMVI melanoma
  TGI: 0.232 µM
PC-3 prostate
  TGI: 0.268 µM
SK-MEL-5 melanoma
  TGI: 0.219 µM
NCI-H226 lung
  TGI: 0.456 µM
EKVX NSCLC
  TGI: 0.397 µM
MALME-3M melanoma
  TGI: 0.213 µM
HOP-62 NSCLC
  TGI: 0.323 µM
M14 melanoma
  TGI: 0.218 µM
HCT-15 colon
  TGI: 0.263 µM
UO-31 renal
  TGI: 0.413 µM
MDA-MB-435
  TGI: 0.208 µM
NCI/ADR-RES ovarian
  TGI: 0.373 µM
SNB-75 CNS
  TGI: 0.335 µM
COLO 205 colon
  TGI: 0.107 µM
IGROV1 ovarian
  TGI: 0.39 µM
SNB-19 CNS
  TGI: 0.829 µM
DU-145 prostate
  TGI: 0.0601 µM
SK-MEL-2 melanoma
  TGI: 0.272 µM
OVCAR-5 ovarian
  TGI: 0.437 µM
NCI-H460 lung
  TGI: 0.0672 µM

## CC1=CCCC(C)(O)C2CC(CCC3(C)OC3CC1)C(C)C(=O)O2 (stereo not given)
UACC-62 melanoma
  TGI: > 100 µM
CAKI-1 renal
  TGI: > 100 µM
NCI-H23 lung
  TGI: > 100 µM
BT-549 breast
  TGI: > 100 µM
MCF7 breast
  TGI: > 100 µM
HCC-2998 colon
  TGI: > 100 µM
NCI-H522 lung
  TGI: > 100 µM
HCT-116 colon
  TGI: > 100 µM
SK-MEL-28 melanoma
  TGI: > 100 µM
K-562 leukemia
  TGI: > 100 µM
OVCAR-3 ovarian
  TGI: > 100 µM
KM12 colon
  TGI: > 100 µM
MDA-N
  TGI: > 100 µM
A549 NSCLC
  TGI: > 100 µM
SN12C renal
  TGI: > 100 µM
T-47D breast
  TGI: > 100 µM
A498 renal
  TGI: > 100 µM
SK-OV-3 ovarian
  TGI: > 100 µM
SW-620 colon
  TGI: > 100 µM
RPMI-8226 leukemia
  TGI: > 100 µM
MDA-MB-231 breast
  TGI: > 100 µM
TK-10 renal
  TGI: > 100 µM
786-0 renal
  TGI: > 100 µM
MOLT-4 leukemia
  TGI: > 100 µM
SF-268 CNS
  TGI: > 100 µM
SF-295 CNS
  TGI: > 100 µM
HT29 colon
  TGI: > 100 µM
OVCAR-4 ovarian
  TGI: > 100 µM
HS 578T breast
  TGI: > 100 µM
CCRF-CEM leukemia
  TGI: > 100 µM
SF-539 CNS
  TGI: > 100 µM
ACHN renal
  TGI: > 100 µM
UACC-257 melanoma
  TGI: > 100 µM
U251 CNS
  TGI: > 100 µM
OVCAR-8 ovarian
  TGI: > 100 µM
LOX IMVI melanoma
  TGI: > 100 µM
PC-3 prostate
  TGI: > 100 µM
SK-MEL-5 melanoma
  TGI: > 100 µM
NCI-H226 lung
  TGI: > 100 µM
EKVX NSCLC
  TGI: > 100 µM
MALME-3M melanoma
  TGI: > 100 µM
M14 melanoma
  TGI: > 100 µM
HCT-15 colon
  TGI: > 100 µM
UO-31 renal
  TGI: > 100 µM
MDA-MB-435
  TGI: > 100 µM
NCI/ADR-RES ovarian
  TGI: > 100 µM
SNB-75 CNS
  TGI: > 100 µM
COLO 205 colon
  TGI: > 100 µM
IGROV1 ovarian
  TGI: > 100 µM
HL-60(TB) leukemia
  TGI: > 100 µM
SNB-19 CNS
  TGI: > 100 µM
DU-145 prostate
  TGI: > 100 µM
SK-MEL-2 melanoma
  TGI: > 100 µM
OVCAR-5 ovarian
  TGI: > 100 µM
NCI-H460 lung
  TGI: > 100 µM

## Clc1ccc(Nc2nn3c(CCCCCCCCc4nnc5sc(Nc6ccc(Cl)cc6)nn45)nnc3s2)cc1
UACC-62 melanoma
  TGI: > 100 µM
RXF 393 renal
  TGI: > 100 µM
CAKI-1 renal
  TGI: > 100 µM
NCI-H23 lung
  TGI: > 100 µM
BT-549 breast
  TGI: > 100 µM
MCF7 breast
  TGI: > 100 µM
HCC-2998 colon
  TGI: > 100 µM
NCI-H522 lung
  TGI: > 100 µM
HCT-116 colon
  TGI: > 100 µM
SK-MEL-28 melanoma
  TGI: > 100 µM
K-562 leukemia
  TGI: > 100 µM
OVCAR-3 ovarian
  TGI: > 100 µM
KM12 colon
  TGI: > 100 µM
MDA-N
  TGI: > 100 µM
A549 NSCLC
  TGI: > 100 µM
SN12C renal
  TGI: > 100 µM
T-47D breast
  TGI: > 100 µM
A498 renal
  TGI: > 100 µM
SK-OV-3 ovarian
  TGI: > 100 µM
SW-620 colon
  TGI: > 100 µM
HOP-92 NSCLC
  TGI: > 100 µM
RPMI-8226 leukemia
  TGI: > 100 µM
MDA-MB-231 breast
  TGI: > 100 µM
TK-10 renal
  TGI: 96.8 µM
786-0 renal
  TGI: > 100 µM
MOLT-4 leukemia
  TGI: > 100 µM
SF-268 CNS
  TGI: > 100 µM
SF-295 CNS
  TGI: > 100 µM
HT29 colon
  TGI: > 100 µM
OVCAR-4 ovarian
  TGI: > 100 µM
HS 578T breast
  TGI: > 100 µM
CCRF-CEM leukemia
  TGI: > 100 µM
SF-539 CNS
  TGI: > 100 µM
ACHN renal
  TGI: > 100 µM
UACC-257 melanoma
  TGI: > 100 µM
U251 CNS
  TGI: > 100 µM
OVCAR-8 ovarian
  TGI: > 100 µM
LOX IMVI melanoma
  TGI: > 100 µM
PC-3 prostate
  TGI: > 100 µM
SK-MEL-5 melanoma
  TGI: > 100 µM
NCI-H226 lung
  TGI: > 100 µM
EKVX NSCLC
  TGI: > 100 µM
MALME-3M melanoma
  TGI: > 100 µM
HOP-62 NSCLC
  TGI: > 100 µM
M14 melanoma
  TGI: > 100 µM
HCT-15 colon
  TGI: > 100 µM
UO-31 renal
  TGI: > 100 µM
MDA-MB-435
  TGI: > 100 µM
NCI/ADR-RES ovarian
  TGI: > 100 µM
SNB-75 CNS
  TGI: 62.6 µM
COLO 205 colon
  TGI: > 100 µM
SNB-19 CNS
  TGI: 80.4 µM
DU-145 prostate
  TGI: > 100 µM
SK-MEL-2 melanoma
  TGI: > 100 µM
OVCAR-5 ovarian
  TGI: > 100 µM
NCI-H460 lung
  TGI: > 100 µM

— PubChem BioAssay (NCI)
